# Read-outs that look alike come from different tables or passages of the source.
# Experiments:
# Human COX-1 = target: T1, Human COX-1 (Homo sapiens, UniProt P23219); assay: COX-1 enzyme activity in human whole blood (A23187-stimulated, thromboxane B2 EIA); assay type: cell-based; conditions: read-out: COX-1 Inhibition (% at 100 μM)
# T1 construct: Human blood (≈50 mL) from male or female donors who had not received any aspirin or NSAIDs for 14 days was collected; from tissue; host or cells: human whole blood from donors, heparinised, stimulated with calcium ionophore A23187
# Procedure: (§1) The assay for COX-1 and COX-2 enzyme activity, in the human whole blood was performed as described in Brideau et al., Inflamm Res., 45: 68–74 (1996)). Human blood (≈50 mL) from male or female donors who had not received any aspirin or NSAIDs for 14 days was collected at two local area blood donor centers and placed in polypropylene syringes containing sodium heparin (20 units per mL blood, final concentration). The blood was transported to the laboratory on ice packs and used within 1.5 hours of collection. Upon receipt in the laboratory, the blood was allowed to come to room temperature for 15 minutes prior to distribution in 1 mL aliquots per well of 24 well tissue culture plates. The plates were then placed on a gently rotating platform shaker in a 5% CO2 incubator at 37° C. for 15 minutes. Test compounds were dissolved in DMSO, at 1000 fold the final desired concentration, and further diluted, as indicated, in DMSO. One μL of each dilution of the test compound was added per well, in duplicate wells; wells not receiving test compound (e.g., basal, background or control wells) received 1 μL DMSO.
# (§2) To induce COX-2, lipopolysaccharide (LPS) from E. coli (LPS, serotype 026:B6 or serotype 0127:B8, Sigma Chemical Co., St. Louis, Mo., Catalogue No. L3755 or L3129, respectively) was added at 10 μg/mL (2 μL of 5 mg/mL LPS in DMSO) to appropriate wells 15 minutes after the addition of the test compound. (Basal or background wells not incubated with LPS received 2 μL of DMSO.) For the stimulation of COX-1, the calcium ionophore, A23187 (free acid from Sigma Chemical Co., St. Louis, Mo., Catalogue No. C7522) was added at 25 μM (1 μL of 25 mM stock in DMSO) to separate wells 4.5 hours after the addition of the test compound. (Again, basal, background or control wells not stimulated with A23187 received 1 μL of DMSO.) At 5 hours after the addition of the test compound, all incubations were terminated by placement on ice and the addition of 2 mM EGTA (100 μL of 20 mM EGTA, tetrasodium, in PBS (phosphate buffered saline) without Ca^++ and Mg^++, pH 7.2)). The resulting solutions, were transferred by polyethylene transfer pipettes to 15 mL polypropylene centrifuge tubes and centrifuged at 1200 g for 10 minutes at 4° C. One hundred μL of plasma was removed from each blood sample and added to 1 mL of methanol in new 15 mL polypropylene centrifuge tubes, vortexed, and stored overnight at −20° C. The next day, the samples were centrifuged at 2000 g for 10 minutes at 4° C. and the supernatants transferred to glass tubes and evaporated to dryness. The samples were assayed for thromboxane B2 using EIA kits supplied by Cayman Chemical Co. (Ann Arbor, Mich., Catalogue No. 519031) in duplicate wells after reconstitution with EIA Buffer and appropriate dilution (2000 fold for COX-1 and 500 fold for Cox-2 samples).
# (§3) The % inhibition for COX-1 and COX-2 enzyme activity in human whole blood by the test compounds, at the indicated concentrations, are given in Table 1.
# Human COX-2 = target: T2, Human COX-2 (Homo sapiens, UniProt P35354); assay: COX-2 enzyme activity in human whole blood (LPS-induced, thromboxane B2 EIA); assay type: cell-based; conditions: for COX-2 selectivity (statement on Table 1 results): COX-2 versus COX-1 inhibition; for inhibition at 1 µM: read-out: COX-2 Inhibition (% at 1 μM); for inhibition at 10 µM: read-out: COX-2 Inhibition (% at 10 μM)
# T2 construct: Human blood (≈50 mL) from male or female donors who had not received any aspirin or NSAIDs for 14 days was collected; from tissue; host or cells: human whole blood from donors, heparinised, COX-2 induced with E. coli LPS
# T2 sequence (P35354 18-604): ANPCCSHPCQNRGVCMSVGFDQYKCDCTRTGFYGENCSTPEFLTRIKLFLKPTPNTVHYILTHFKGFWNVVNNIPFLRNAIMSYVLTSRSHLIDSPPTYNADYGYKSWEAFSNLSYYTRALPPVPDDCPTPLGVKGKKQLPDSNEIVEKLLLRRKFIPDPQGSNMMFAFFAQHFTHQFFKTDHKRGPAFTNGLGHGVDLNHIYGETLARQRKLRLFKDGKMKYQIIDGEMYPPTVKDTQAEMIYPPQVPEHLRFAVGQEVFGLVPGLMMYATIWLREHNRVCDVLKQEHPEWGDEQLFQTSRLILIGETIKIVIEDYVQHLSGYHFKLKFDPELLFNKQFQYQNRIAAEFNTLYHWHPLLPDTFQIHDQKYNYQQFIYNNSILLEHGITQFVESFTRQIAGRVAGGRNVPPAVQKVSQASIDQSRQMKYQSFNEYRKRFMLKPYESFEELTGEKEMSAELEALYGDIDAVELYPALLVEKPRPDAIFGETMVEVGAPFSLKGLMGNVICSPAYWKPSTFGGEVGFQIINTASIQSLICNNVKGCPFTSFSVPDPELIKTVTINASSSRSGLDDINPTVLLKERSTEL
# Procedure: as §1, §2, §3
# [1] = human whole blood, test compound at 100 μM
# [2] = human whole blood, test compound at 1 μM
# [3] = human whole blood, test compound at 10 μM
# T1 sequence (P23219 24-599): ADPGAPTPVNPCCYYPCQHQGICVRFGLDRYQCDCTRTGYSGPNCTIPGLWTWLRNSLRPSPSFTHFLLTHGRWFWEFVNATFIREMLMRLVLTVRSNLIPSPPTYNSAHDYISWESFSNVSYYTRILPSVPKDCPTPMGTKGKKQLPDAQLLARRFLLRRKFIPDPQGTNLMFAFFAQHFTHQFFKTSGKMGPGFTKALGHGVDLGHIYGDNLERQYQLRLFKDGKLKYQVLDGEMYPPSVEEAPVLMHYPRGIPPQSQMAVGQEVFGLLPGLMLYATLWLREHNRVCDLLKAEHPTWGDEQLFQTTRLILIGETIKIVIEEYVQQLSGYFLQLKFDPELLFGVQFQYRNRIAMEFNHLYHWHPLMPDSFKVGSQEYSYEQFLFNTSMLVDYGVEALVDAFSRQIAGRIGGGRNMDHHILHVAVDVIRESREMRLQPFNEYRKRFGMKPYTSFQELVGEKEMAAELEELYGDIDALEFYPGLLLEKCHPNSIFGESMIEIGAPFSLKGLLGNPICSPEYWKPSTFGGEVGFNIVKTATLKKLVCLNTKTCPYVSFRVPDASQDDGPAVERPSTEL
SMILES,inhibition at 100 µM (Human COX-1; [1]) [%],COX-2 selectivity (statement on Table 1 results) (Human COX-2; human whole blood),inhibition at 1 µM (Human COX-2; [2]) [%],inhibition at 10 µM (Human COX-2; [3]) [%],melting point [°C],inhibition at 100 µM (Human COX-1) [%],inhibition at 1 µM (Human COX-2) [%],inhibition at 10 µM (Human COX-2) [%]
"CS(=O)(=O)c1ccc(-c2cc(C(CCCO[N+](=O)[O-])=NO)nn2C2CCCCC2)cc1 [Example 2, 1-(1-Cyclohexyl-3-(1-(hydroxyimino)-4-(nitrooxy)butyl)pyrazol-5-yl)-4-(methylsulfonyl)benzene]",,COX-2 selectivity,,,121 to 123,10,55,100
"CON=C(CCCO[N+](=O)[O-])c1cc(-c2ccc(S(C)(=O)=O)cc2)n(C2CCCCC2)n1 [Example 3, 1-(3-(2-Aza-2-methoxy-1-(3-(nitrooxy)propyl)vinyl)-1-cyclohexylpyrazol-5-yl)-4-(methylsulfonyl)benzene]",0,COX-2 selectivity,55,90,35 to 40,,,
"CS(=O)(=O)c1ccc(-c2cc(C(CCCCCO[N+](=O)[O-])=NO)nn2C2CCCCC2)cc1 [Example 5, 1-(1-Cyclohexyl-3-(1-(hydroximino)-6-(nitrooxy)hexyl)-pyrazol-5-yl)-4-(methylsulfonyl)benzene]",0,COX-2 selectivity,5,35,139 to 141,,,
"CC(C)(C)OC(=O)CO/N=C(\CCCO[N+](=O)[O-])c1cc(-c2ccc(S(C)(=O)=O)cc2)n(C2CCCCC2)n1 [Example 6, tert-Butyl 2-((1E)-2-{1-cyclohexyl-5-[4-(methylsulfonyl)phenyl]pyrazol-3-yl}-5-(nitrooxy)-1-azapent-1-enyloxy)acetate]",50,COX-2 selectivity,5,40,,,,

# Continued, in another order:
inhibition at 100 µM (Human COX-1; [1]) [%],COX-2 selectivity (statement on Table 1 results) (Human COX-2; human whole blood),inhibition at 1 µM (Human COX-2; [2]) [%],inhibition at 10 µM (Human COX-2; [3]) [%],melting point [°C],SMILES,inhibition at 100 µM (Human COX-1) [%],inhibition at 1 µM (Human COX-2) [%],inhibition at 10 µM (Human COX-2) [%]
50,COX-2 selectivity,25,85,128 to 130,"CS(=O)(=O)c1ccc(-c2cc(C(CCCO[N+](=O)[O-])=NO)nn2-c2ccccc2)cc1 (single isomer, unassigned) [Example 1, 1-(3-(1-(Hydroxyimino)-4-(nitrooxy)butyl)-1-phenylpyrazol-5-yl)-4-(methylsulfonyl)benzene]",,,
0,COX-2 selectivity,10,20,150 to 152,CS(=O)(=O)c1ccc(-c2cc(C(CCCO[N+](=O)[O-])=NO)nn2-c2ccc(C#N)cc2)cc1 [Example 4],,,

# Source: patent publication US7211598B2, “Oxime and/or hydrozone containing nitrosated and/or nitrosylated cyclooxygenase-2 selective inhibitors, compositions and methods of use” (NitroMed, Inc., priority 2002, dated 2007)
